Experimental findings from US8394399B2, “Drug-enhanced adhesion prevention” (Ethicon, Inc., priority 2004, dated 2013) are described below.

The nature of series [1]: Necropsy observations in the sidewall adhesion study. It counts as in vivo, rabbit. The protocol:
(§1) The efficacy of Pemirolast in inhibiting adhesion formation was evaluated using a single pump, filled with one of three dosage levels of mg of Pemirolast per ml of delivery vehicle (0.625 mg/ml, 6.25 mg/ml or 62.5 mg/ml), or placebo control (saline). The drug was placed in an Alzet miniosmotic pump and delivered over 7 days at a rate of 10 microliter/hr. The animals were sacrificed after 21 days.
However, there was inflammation observed at the abdominal cavity in 1 of 7 and 3 of 7 rabbits at the medium and high dose of drug, respectively.

In series [2] the test system is adhesion formation at the sidewall injury. The series is described as follows: Rabbit peritoneal sidewall adhesion model, 1 week dosing via Alzet miniosmotic pump. Type of series: in vivo. More on the design: key to Adhesion Tenacity: 0: No adhesions; 1: mild, easily dissectible adhesions; 2: moderate adhesions; non-dissectible, does not tear organ; 3: dense adhesions; non-dissectible, tears when removed. To be noted: for Adhesion Area Percentage / Adhesion Tenacity: 10 microliter/hr over 7 days, sacrifice after 21 days, individual animals 1-7; for Adhesion Tenacity: score 0-3; for mean adhesion score: group mean of 7 rabbits, placebo control 100±0. The protocol:
In the peritoneal sidewall model, rabbits were pre-anesthetized with 1.2 mg/kg acetylpromazine and anesthetized with a mixture of 55 mg/kg ketamine hydrochloride and 5 mg/kg xylazine intramuscularly. Following preparation for sterile surgery, a midline laparotomy was performed. A 3 cm×5 cm area of peritoneum and transversus abdominis muscle was removed on the right lateral abdominal wall. The cecum was exteriorized and digital pressure was exerted to create subserosal hemorrhages (trauma and loss of blood flow) over all cecal surfaces. The cecum was then returned to its normal anatomic position. Tranilast contained in a delivery vehicle as described below was placed in an Alzet® miniosmotic pump (Alza Corporation, Palo Alto, Calif.) to allow continuous release of the molecule through the postsurgical interval. The Alzet miniosmotic pump was placed in the subcutaneous space and a delivery tube connected the pump with the site of injury at the sidewall. Only the delivery vehicle was placed in the pump of control rabbits. The abdominal wall and skin were closed in a standardized manner.
After 21 days, the rabbits were sacrificed and the percentage of the area of the sidewall injury that was involved in adhesions was determined. In addition, the tenacity of the adhesion formed was scored using a system as follows:
With the sidewall model, an initial score to represent the overall extent of adhesions is given (0 to 3).
The percentage of a surface of the sidewall involved in adhesions to various organs are given in the tables below to quantify the overall adhesion score. A reduction in the area and the tenacity of the adhesions would be considered beneficial and efficacious.
as §1

Values joined by “and” are separate entries in the source; they are usually repeats but may differ in a detail not shown here. Equal values may be shown once.

On to `Cc1cccn2c(=O)c(-c3nnn[nH]3)cnc12` [Pemirolast, 9-methyl-3-(1H-tetrazol-5-yl)-4H-pyrido [1,2-α]pyrimidin-4-one potassium], for which the “clinical signs associated with administration” value in series [1] (at necropsy, all doses) is on record as “no clinical signs”. For the same compound, the “inflammation observed at the abdominal cavity (rabbits affected)” value in series [1] (high dose (62.5 mg/ml)) is reported as 3 of 7; in series [1] (medium dose (6.25 mg/ml)), 1 of 7. Besides, the “Adhesion Area Percentage” value in series [2] (0.625 mg/ml in pump) was 80% (2×) and 100% (4×) and 70%; in series [2] (6.25 mg/ml in pump), 50% and 80% (2×) and 100% (2×) and 70% and 60%; in series [2] (62.5 mg/ml in pump) it was 70% (2×) and 50% (2×) and 80% (2×) and 100%. For the same compound, the “Adhesion Tenacity” value in series [2] (0.625 mg/ml in pump) was 1 (5×) and 2 (2×); in series [2] (6.25 mg/ml in pump), 1 (6×) and 2; in series [2] (62.5 mg/ml in pump), 2 (3×) and 1 (4×). The mean adhesion score in series [2] (0.625 mg/ml) is given as 90.0±4.9; in series [2] (6.25 mg/ml, p=0.007), 77.1±7.1; in series [2] (62.5 mg/ml, p=0.001), 71.4±6.7. Moreover, the “tenacity of the adhesions formed, relative to control” value in series [2] (all dose groups, analysis of variance on the ranks) was “significant reductions”. In series [2] (sidewall model, reductions in the groups that received the higher doses), the “area of adhesion formation, relative to control” value was “reduced the area of adhesion formation”.
